Tests used:
Format in all cases: functional
Rattus norvegicus [1] = test: Percent salinte-treated controls were evaluated against Pneumocystis carinii in immunosuppressed rats at a dose of 33 umol/kg/day administered orally.
Rattus norvegicus [2] = test: Percent salinte-treated controls were evaluated against Pneumocystis carinii in immunosuppressed rats at a dose of 22 umol/kg/day administered by tail vein injection.
Rattus norvegicus [3] = test: In vivo toxicity against Pneumocystis carinii in immunosuppressed rats at a dose of 22 umol/kg/day administered by tail vein injection.
Rattus norvegicus [4] = test: In vivo toxicity against Pneumocystis carinii in immunosuppressed rats at a dose of 33 umol/kg/day administered orally.
Rattus norvegicus [5] = test: In vivo toxicity against Pneumocystis carinii in immunosuppressed rats at a dose of 5.5 umol/kg/day administered by tail vein injection.
Rattus norvegicus [6] = test: Percent salinte-treated controls were evaluated against Pneumocystis carinii in immunosuppressed rats at a dose of 5.5 umol/kg/day administered orally.
Rattus norvegicus [7] = test: Percent salinte-treated controls were evaluated against Pneumocystis carinii in immunosuppressed rats at a dose of 11 umol/kg/day administered by tail vein injection.
Rattus norvegicus [8] = test: Percent salinte-treated controls were evaluated against Pneumocystis carinii in immunosuppressed rats at a dose of 11 umol/kg/day administered orally.
Rattus norvegicus [9] = test: Percent salinte-treated controls were evaluated against Pneumocystis carinii in immunosuppressed rats at a dose of 0.3 umol/kg/day administered by tail vein injection.
Rattus norvegicus [10] = test: Percent salinte-treated controls were evaluated against Pneumocystis carinii in immunosuppressed rats at a dose of 5.5 umol/kg/day administered by tail vein injection.
Rattus norvegicus [11] = test: In vivo toxicity against Pneumocystis carinii in immunosuppressed rats at a dose of 5.5 umol/kg/day administered orally.
Rattus norvegicus [12] = test: In vivo toxicity against Pneumocystis carinii in immunosuppressed rats at a dose of 0.3 umol/kg/day administered by tail vein injection.
Rattus norvegicus [13] = test: In vivo toxicity against Pneumocystis carinii in immunosuppressed rats at a dose of 11 umol/kg/day administered by tail vein injection.
Rattus norvegicus [14] = test: In vivo toxicity against Pneumocystis carinii in immunosuppressed rats at a dose of 2.7 umol/kg/day administered by tail vein injection.
Rattus norvegicus [15] = test: In vivo toxicity against Pneumocystis carinii in immunosuppressed rats at a dose of 11 umol/kg/day administered orally.
Rattus norvegicus [16] = test: Percent salinte-treated controls were evaluated against Pneumocystis carinii in immunosuppressed rats at a dose of 2.7 umol/kg/day administered by tail vein injection.
Rattus norvegicus [17] = test: Percent salinte-treated controls were evaluated against Pneumocystis carinii in immunosuppressed rats at a dose of 0.03 umol/kg/day administered by tail vein injection.
Rattus norvegicus [18] = test: In vivo toxicity against Pneumocystis carinii in immunosuppressed rats at a dose of 39.8 umol/kg/day administered orally.
Rattus norvegicus [19] = test: In vivo toxicity against Pneumocystis carinii in immunosuppressed rats at a dose of 13.3 umol/kg/day administered by tail vein injection.
Rattus norvegicus [20] = test: In vivo toxicity against Pneumocystis carinii in immunosuppressed rats at a dose of 26.6 umol/kg/day administered by tail vein injection.
Rattus norvegicus [21] = test: Percent salinte-treated controls were evaluated against Pneumocystis carinii in immunosuppressed rats at a dose of 39.8 umol/kg/day administered orally.
Rattus norvegicus [22] = test: In vivo toxicity against Pneumocystis carinii in immunosuppressed rats at a dose of 66.3 umol/kg/day administered orally.
Rattus norvegicus [23] = test: In vivo toxicity against Pneumocystis carinii in immunosuppressed rats at a dose of 0.03 umol/kg/day administered by tail vein injection.
Rattus norvegicus [24] = test: Percent salinte-treated controls were evaluated against Pneumocystis carinii in immunosuppressed rats at a dose of 13.3 umol/kg/day administered by tail vein injection; Not available
Rattus norvegicus [25] = test: Percent salinte-treated controls were evaluated against Pneumocystis carinii in immunosuppressed rats at a dose of 66.3 umol/kg/day administered orally.
Rattus norvegicus [26] = test: Percent salinte-treated controls were evaluated against Pneumocystis carinii in immunosuppressed rats at a dose of 22 umol/kg/day administered orally.
Rattus norvegicus [27] = test: In vivo toxicity against Pneumocystis carinii in immunosuppressed rats at a dose of 22 umol/kg/day administered orally.

Structure (SMILES) | Saline control (Rattus norvegicus [1]) [%] | Saline control (Rattus norvegicus [2]) [%] | Toxicity (Rattus norvegicus [3]) | Toxicity (Rattus norvegicus [4]) | Saline control (Rattus norvegicus [6]) [%] | Saline control (Rattus norvegicus [8]) [%] | Saline control (Rattus norvegicus [9]) [%] | Toxicity (Rattus norvegicus [11]) | Toxicity (Rattus norvegicus [12]) | Toxicity (Rattus norvegicus [14]) | Toxicity (Rattus norvegicus [15]) | Saline control (Rattus norvegicus [16]) [%] | further results
CCONC(=N)c1ccc(-c2ccc(-c3ccc(C(=N)NOCC)cc3)o2)cc1 | 121.5 | 104.7 | 1 | 0 | – | – | – | – | – | – | – | – | –
N=C(NO)c1ccc(-c2ccc(-c3ccc(/C(N)=N\O)cc3)o2)cc1 | 3.1 | 0.67 | 1 | 0 | 127 | 197.6 | 203.6 | 0 | 0 | 0 | 0 | 54.4 | Toxicity (Rattus norvegicus [5]): 1; Saline control (Rattus norvegicus [7]): 1.37%; Saline control (Rattus norvegicus [10]): 42.3%; Toxicity (Rattus norvegicus [13]): 1
N=C(N)c1ccc(-c2ccc(-c3ccc(C(=N)N)cc3)o2)cc1 [FURAMIDINE] | – | – | – | – | – | – | 6.92 | – | 0 | 0 | – | 7.26 | Saline control (Rattus norvegicus [17]): 26.3%; Toxicity (Rattus norvegicus [18]): 0; Toxicity (Rattus norvegicus [19]): 0; Toxicity (Rattus norvegicus [20]): 1; Saline control (Rattus norvegicus [21]): 42.3%; Toxicity (Rattus norvegicus [22]): 0; Toxicity (Rattus norvegicus [23]): 0; Saline control (Rattus norvegicus [24]): 0.79%; Saline control (Rattus norvegicus [25]): 25.2%
CONC(=N)c1ccc(-c2ccc(-c3ccc(C(=N)NOC)cc3)o2)cc1 [PAFURAMIDINE] | 1.82 | 14.3 | 0 | 0 | 264.2 | 34.7 | – | 0 | – | – | 0 | – | Saline control (Rattus norvegicus [26]): 12%; Toxicity (Rattus norvegicus [27]): 0

From ChEMBL document CHEMBL1151527, “Anti-pneumocystis activity of bis-amidoximes and bis-o-alkylamidoximes prodrugs” (1996)
